pIC50, pKi: −log10 of the molar value. “And” between values parts separate entries of the source, which are not always exact repeats. Identical values can stand only once. Counter-ions that a name gives are not always drawn. Like-named read-outs stand apart in the source and are kept apart here.

The text below walks through data of patent US5591749A, “Imidazopyridines as serotonergic 5-HT3 -antagonists” (G. D. Searle & Co., priority 1995, dated 1997).

One test deals with T1, 5-HT3 (Mus musculus, UniProt P23979).
T1 construct: NG108-15 Cells; endogenous in cells; host or cells: NG108-15 cells
Kind of test: 5-HT3 binding, NG108-15 cells. An excerpt: (§1) 5-HT3 antagonism can be determined by the radioligand receptor binding assay as described herein and in the in vivo Bezold-Jarisch reflex procedure.

The next test concerns 5-HT-induced bradycardia. Kind of test: Bezold-Jarisch reflex (5-HT-induced bradycardia) in pentobarbital anesthetized mice. Format: in vivo. As to the method: as §1
The test sample is administered i.p. (mg/kg) to a group of 3 mice. […] A greater than 50 percent (>50) reduction in the bradycardic response relative to vehicle-treated control mice is considered significant.
This method has been described by Saxena, P. R. and Lawang, A., Arch. Int. Pharmacodyn., 277:235-252, 1985.

The next test concerns the target T2, 5-HT3 receptor (Rattus norvegicus, UniProt P35563).
T2 construct: Brain cortices are obtained from male rats and a membrane fraction prepared by standard techniques; from tissue; host or cells: rat brain cortex membranes
T2 sequence (P35563 24-483): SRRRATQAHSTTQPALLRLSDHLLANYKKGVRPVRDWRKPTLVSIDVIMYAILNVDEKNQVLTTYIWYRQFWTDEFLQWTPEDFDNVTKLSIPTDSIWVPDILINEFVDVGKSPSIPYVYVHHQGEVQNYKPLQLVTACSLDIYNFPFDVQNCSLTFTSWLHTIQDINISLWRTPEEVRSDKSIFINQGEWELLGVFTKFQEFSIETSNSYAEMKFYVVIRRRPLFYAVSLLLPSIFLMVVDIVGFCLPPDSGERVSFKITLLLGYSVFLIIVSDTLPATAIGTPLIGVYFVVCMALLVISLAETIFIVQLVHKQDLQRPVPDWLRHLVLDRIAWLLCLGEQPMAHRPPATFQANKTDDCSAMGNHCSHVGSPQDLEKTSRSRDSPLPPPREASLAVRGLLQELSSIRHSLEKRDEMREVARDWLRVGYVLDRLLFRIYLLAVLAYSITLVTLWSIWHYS
Kind of test: [3H]-GR65630 radioligand receptor binding assay, rat brain cortex membranes. To be noted: for Hill Coefficient: 0.2 nM [3H]-GR65630. As to the method: as §1
GR65630 binds to the 5-HT3 receptor. Brain cortices are obtained from male rats and a membrane fraction prepared by standard techniques. 0.04 mg of membrane prep is incubated with 0.2 nM [^3 H]-GR656630 for 60 minutes at 22° C. […] Membranes are filtered and washed 3 times and the filters are counted to determine [3H]-GR65630 specifically bound.*
Effect of Reference Compounds on
Kilpatrick GJ, Jones BJ and Tyers MB. Identification and distribution of 5-HT3 receptors in rat brain using radioligand binding. Nature, 330: 746-748, 1987.

Where [1] appears, read: several examples have two IC50 values, read-out: 5-HT3 binding: NG108-15 cells IC50.
The mark [2] stands for this setting: Mus musculus, ip, 0.5 h; read-out: Minimum Effective Dose (MED).
[3] abbreviates: Mus musculus, ip, 0.5 h, read-out: Minimum Effective Dose (MED).

T1 sequence (P23979 24-489): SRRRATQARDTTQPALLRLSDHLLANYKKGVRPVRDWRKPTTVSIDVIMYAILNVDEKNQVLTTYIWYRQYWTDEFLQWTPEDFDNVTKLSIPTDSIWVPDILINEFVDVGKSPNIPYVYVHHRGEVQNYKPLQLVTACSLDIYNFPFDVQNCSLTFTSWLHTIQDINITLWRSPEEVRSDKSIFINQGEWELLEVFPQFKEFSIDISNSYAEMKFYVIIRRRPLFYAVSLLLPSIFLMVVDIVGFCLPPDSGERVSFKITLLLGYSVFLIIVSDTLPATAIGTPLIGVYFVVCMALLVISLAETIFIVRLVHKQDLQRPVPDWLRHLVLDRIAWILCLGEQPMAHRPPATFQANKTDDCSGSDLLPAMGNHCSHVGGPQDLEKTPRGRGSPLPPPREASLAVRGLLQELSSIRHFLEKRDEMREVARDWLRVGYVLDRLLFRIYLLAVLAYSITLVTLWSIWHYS

What is called pKi is the negative decadic logarithm of the Ki, by convention in mol/L. What is called pIC50 is the negative decadic logarithm of the IC50, by convention in mol/L. Compound `CN1[C@@H]2CC[C@H]1C[C@@H](NC(=O)c1cccn3ccnc13)C2` [Example 4, endo-N-(8-methyl-8-azabicyclo[3.2.1]octan-3-yl)imidazo [1,2-a]pyridine-8-carboxamide, hydrochloride] had a pKi on 5-HT3 of 6.38. Moreover, on 5-HT3 (setting [1]), the pIC50 was 6.30 and 6.08. Also, the results for the “Bezold Jarisch reflex (mice); % Inhibition @ Dose (IP)” value with 5-HT-induced bradycardia (3 mg/kg i.p.) and in the test on 5-HT-induced bradycardia (10 mg/kg i.p.) were 2% and 82%, respectively.
For the compound `CO[C@@H]1CN(CCCOc2ccc(F)cc2)CC[C@@H]1NC(=O)c1cccn2ccnc12` (relative stereo) [Example 13, Cis-N-[[3-(4-Fluorophenoxy)propyl]-3-methoxy-4piperidinylamine]imidazo[1,2-a]pyridine-8-carboxamide], in the test with 5-HT-induced bradycardia (10 mg/kg i.p.), the “Bezold Jarisch reflex (mice); % Inhibition @ Dose (IP)” value is listed as 23%.
In the case of `O=C(c1ccc(F)cc1)C1CCN(CCn2c(=O)[nH]c3ccccc3c2=O)CC1` [ketanserin, reference compound], the minimal effective dose in the test with 5-HT-induced bradycardia (setting [2]) was above 10 mg/kg.
`O=C(N[C@H]1[C@H]2C[C@@H]3CN(C2)C[C@@H]31)c1cc(Cl)cn2ccnc12` (relative stereo) [Example 9, (±)-endo-N-(Hexahydro-1H-2,5β-methano-3aα,6aα-cyclopenta[c]pyrrol-4α-yl)-6-chloroimidazo[1,2-a]pyridine-8-carboxamide, monohydrochloride] had a pKi on 5-HT3 of 7.19. On 5-HT3 (setting [1]), the pIC50 was 7.80 and 6.90.
`CCN(CC)CCNC(=O)c1cc(Cl)c(N)cc1OC` [metoclopramide, reference compound]: in the test on 5-HT-induced bradycardia (setting [3]), the minimal effective dose was 5 mg/kg.
In the case of `CC[C@@H](CO)NC(=O)[C@@H]1C=C2c3cccc4c3c(cn4C)C[C@H]2N(C)C1` [methysergide, reference compound], the minimal effective dose with 5-HT-induced bradycardia (setting [3]) is above 10 mg/kg.
The same measure, in the same setting: with `O=c1[nH]c2ccccc2n1CCCN1CCC(n2c(=O)[nH]c3cc(Cl)ccc32)CC1` [domperidone, reference compound] the figure was above 10 mg/kg.
`COc1cc(N)c(Cl)cc1C(=O)NC1CN2CCC1CC2` (stereo not shown) [Zacopride]: on 5-HT3 receptor, the “Hill Coefficient” value stood at 0.86.
Compound `O=C(NC1CN2CCC1CC2)c1cc(Cl)cn2ccnc12` (stereo not shown) [Example 7, N-(1-Azabicyclo[2.2.2]octan-3-yl)-6-chloroimidazo[1,2-a]pyridine-8-carboxamide dihydrochloride] showed a pKi on 5-HT3 of 7.92. For the same compound, the pIC50 at 5-HT3 (setting [1]) is 7.76 and 7.64.
In turn, `CN1[C@@H]2CC[C@H]1C[C@H](NC(=O)c1cccn3ccnc13)C2` [Example 5, exo-N-(8-methyl-8-azabicyclo[3.2.1]octan-3-yl)imidazo[1,2-a]pyridine-8-carboxamide, hydrochloride] showed a pKi at 5-HT3 of 6.50. In addition, at 5-HT3 (setting [1]), the pIC50 is 6.32 and 6.20. The “Bezold Jarisch reflex (mice); % Inhibition @ Dose (IP)” value in the test with 5-HT-induced bradycardia (10 mg/kg i.p.) was found to be 80%.
With `COc1cc(N)c(Cl)cc1C(=O)NC1CCN(CCCOc2ccc(F)cc2)CC1OC` (stereo not shown) [cisapride, reference compound], the minimal effective dose in the test on 5-HT-induced bradycardia (setting [2]) came out at 5 mg/kg.
`CN1[C@@H]2C[C@@H](OC(=O)[C@H](CO)c3ccccc3)C[C@H]1[C@@H]1O[C@@H]12` [scopolamine, reference compound]: in the test on 5-HT-induced bradycardia (setting [3]), the minimal effective dose worked out at 2.5 mg/kg.
The same measure, in the same setting: with `CN1C2CCCC1CC(NC(=O)c1nn(C)c3ccccc13)C2` (stereo not shown) [BRL-43694, reference compound] the figure was 0.05 mg/kg.
Turning to `CCc1cc(C(=O)N[C@H]2[C@H]3C[C@@H]4CN(C3)C[C@@H]42)c2ccccn12` (relative stereo) [Example 15, (±)-endo-N-(Hexahydro-1H-2,5β-methano-3aα,6aα-cyclopenta[c]pyrrol-4aα-yl)-3-ethylindolizine-1-carboxamide monohydrochloride], the pIC50 on 5-HT3 (setting [1]) was 7.58.
`CN1CCC(=C2c3ccccc3C=Cc3ccccc32)CC1` [cyproheptadine, reference compound]: the minimal effective dose in the test on 5-HT-induced bradycardia (setting [2]) is 5 mg/kg.
`COc1ccc2[nH]cc(C3=CCNCC3)c2c1` [RU24969]: the “Hill Coefficient” value on 5-HT3 receptor stood at 1.0.
At 5-HT3 receptor ([3H]-GR65630, rat cortex membranes), `Cc1[nH]cnc1CCC(=O)c1cn(C)c2ccccc12` [GR65630] yielded a Bmax of 154 fmol/mg protein. For the same compound, at 5-HT3 receptor ([3H]-GR65630, non-specific binding with 1 uM ICS 205-930), the “Specific Binding” value is 70.
Regarding `c1ccc2nc(N3CCNCC3)ccc2c1` [Quipazine], on 5-HT3 receptor, the “Hill Coefficient” value was 0.86.
As for `CNC1(C)C2CCC(C2)C1(C)C` (stereo not shown) [mecamylamine, reference compound], the minimal effective dose with 5-HT-induced bradycardia (setting [2]) was determined as 2.5 mg/kg.
Consider `O=C(NC1C2CC3CC1CN(C3)C2)c1cc(Cl)cn2ccnc12` (stereo not drawn) [Example 11, exo-N-(1-azatricyclo[3.3.1.1^3,7]decan-4-yl)-6-chloroimidazo[1,2-a]pyridine-8-carboxamide, monohydrochloride], for which the pIC50 at 5-HT3 (setting [1]) is below 7.00.
On the same count and under the same terms, with `CCN(CC)CCNC(=O)c1cccn2ccnc12` [Example 12, N-[2-(Diethylamino)ethyl]imidazo[1,2-a]pyridine-8-carboxamide] the figure was 7.77.
Regarding `CN1[C@@H]2CC[C@H]1C[C@@H](NC(=O)c1cc(Cl)cn3ccnc13)C2` [Example 3, endo-N-(8-Methyl-8-azabicyclo [3.2.1]octan-3-yl)-6-chloroimidazo[1,2-a]pyridine-8-carboxamide, dihydrochloride], at 5-HT3, the pKi was 7.30. In addition, the pIC50 on 5-HT3 (setting [1]) was 7.71 and 7.00.
`O=C(NC1CN2CCC1CC2)c1cccn2ccnc12` (stereo not shown) [Example 8, N-(1-Azabicyclo[2.2.2]octan-3-yl)imidazo[1,2-a]pyridine-8-carboxamide, dihydrochloride]: the pIC50 at 5-HT3 (read-out: 5-HT3 binding: NG108-15 cells IC50, several examples have two IC50 values) was 7.15. For the same compound, the “Bezold Jarisch reflex (mice); % Inhibition @ Dose (IP)” value in the test on 5-HT-induced bradycardia (0.5 mg/kg i.p.) turned out to be 82%; in the test on 5-HT-induced bradycardia (2.5 mg/kg i.p.), 88%; in the test with 5-HT-induced bradycardia (5 mg/kg i.p.), 95%; in the test on 5-HT-induced bradycardia (10 mg/kg i.p.) it was 100%.
Consider `Cl.Cl.O=C(NC1CCN2CCCC1C2)c1cccn2ccnc12` (stereo not drawn) [Example 2, endo-N-(1-Azabicyclo[3.3.1]nonan-4-yl)imidazo[1,2-a]pyridine-8-carboxamide, dihydrochloride], for which the entries for the “Bezold Jarisch reflex (mice); % Inhibition @ Dose (IP)” value in the test on 5-HT-induced bradycardia (5 mg/kg i.p.) and in the test on 5-HT-induced bradycardia (10 mg/kg i.p.) were 1% and 53%, respectively.
Turning to `O=C(N[C@H]1CCN2CCC[C@@H]1C2)c1cc(Cl)cn2ccnc12` (relative stereo) [Example 1, endo-N-(1-Azabicyclo[3.3.1]nonan-4-yl)-6-chloroimidazo[1,2-a]pyridine-8-carboxamide, dihydrochloride], on 5-HT3, the pKi is 6.86. The “Bezold Jarisch reflex (mice); % Inhibition @ Dose (IP)” value with 5-HT-induced bradycardia (1 mg/kg i.p.) worked out at 68%; in the test on 5-HT-induced bradycardia (3 mg/kg i.p.), 73%; with 5-HT-induced bradycardia (10 mg/kg i.p.), 87%.
With `Cc1nccn1CC1CCc2c(c3ccccc3n2C)C1=O` (stereo not shown) [GR-38032, reference compound], in the test on 5-HT-induced bradycardia (setting [2]), the minimal effective dose is 0.5 mg/kg.
Regarding `CN1[C@@H]2CCC[C@H]1C[C@@H](NC(=O)c1cc(Cl)cn3ccnc13)C2` [Example 6, endo-N-(9-Methyl-9-azabicyclo[3.3.1]nonan-3-yl)-6-chloroimidazo[1,2-a]pyridine-8-carboxamide hydrochloride], at 5-HT3, the pKi was 8.31.
As for `CN1[C@@H]2CC[C@H]1C[C@@H](OC(=O)c1c[nH]c3ccccc13)C2` [ICS 205-930], the “Hill Coefficient” value at 5-HT3 receptor stood at 1.0.
As to `O=C(N[C@H]1[C@H]2C[C@@H]3CN(C2)C[C@@H]31)c1cccn2ccnc12` (relative stereo) [Example 10, (±)-endo-N-(Hexahydro-1H-2,5β-methano-3aα,6aα-cyclopenta[c]pyrrol-4α-yl)imidazo[1,2-a]pyridine-8-carboxamide, hydrochloride], the pKi at 5-HT3 was 6.91. Besides, at 5-HT3 (setting [1]), the pIC50 was 6.70 and 6.61. Besides, the “Bezold Jarisch reflex (mice); % Inhibition @ Dose (IP)” value in the test with 5-HT-induced bradycardia (10 mg/kg i.p.) was determined as 81%.
Consider `CCc1nc(C(=O)N[C@H]2[C@H]3C[C@@H]4CN(C3)C[C@@H]42)c2ccccn12` (relative stereo) [Example 16, (±)-endo-N-(Hexahydro-1H,2,5β-methano-3aα,6aα-cyclopenta[c]pyrrol-4α-yl)-3-ethylimidazo[1,5-a]pyridine-1-carboxamide, monohydrochloride], for which the pIC50 at 5-HT3 (setting [1]) was 7.52.
